Laboratory results reported in PubChem BioAssay AID463203 (Broad Institute, 2010).
The source made the active and inactive calls.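 Rule for the calls: active = more than half of replicate measurements showing over 20% loss of kinase signal relative to plate controls; inconclusive = some but at most half of replicates over 20% loss; inactive = no replicate over 20% signal loss.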

Target: Glycogen synthase kinase-3 alpha (Homo sapiens) (UniProt P49840)
Assay: concentration-response blocking of human GSK3A – biochemical, luminescence, cell-free homogeneous, retest, dose response (AID 463203)
Conditions: GSK-3 alpha enzyme, ADP-Glo luminescence, 60 min

Chain of Glycogen synthase kinase-3 alpha (Homo sapiens) (P49840 whole entry, looked up): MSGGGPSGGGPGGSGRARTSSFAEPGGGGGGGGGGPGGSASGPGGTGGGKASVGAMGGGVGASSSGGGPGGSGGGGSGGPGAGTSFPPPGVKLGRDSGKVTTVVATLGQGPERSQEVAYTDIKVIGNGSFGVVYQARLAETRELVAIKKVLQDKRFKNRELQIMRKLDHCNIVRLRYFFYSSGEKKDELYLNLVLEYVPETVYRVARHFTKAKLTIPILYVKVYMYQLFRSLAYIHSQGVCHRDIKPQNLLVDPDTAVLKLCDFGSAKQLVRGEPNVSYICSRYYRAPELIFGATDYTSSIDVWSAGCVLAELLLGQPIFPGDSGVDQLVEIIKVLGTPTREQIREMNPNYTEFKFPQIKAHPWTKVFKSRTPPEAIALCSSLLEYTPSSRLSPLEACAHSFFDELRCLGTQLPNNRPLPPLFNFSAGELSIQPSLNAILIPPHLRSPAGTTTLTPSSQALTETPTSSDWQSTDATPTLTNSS

SMILES | AC50
COc1cccc(-c2c(C(=O)N/N=C(\C)c3cccnc3)nnn2-c2nonc2N)c1 | > 30 µM (inactive)
Oc1ccc(-c2csc(Nc3cccnc3)n2)cc1 | 10.7 µM
Cc1cccc(NC(=O)CSCc2nc3c(nnn3Cc3ccc(F)cc3)c(=O)[nH]2)c1C | > 30 µM (inactive)
O=C(Nc1ccccc1F)Nc1ccccc1OC(F)F | > 30 µM (inactive)
COC(=O)CSc1nc(NCC(C)C)nc(N2CCOCC2)n1 | > 30 µM (inactive)
CCN(CC)S(=O)(=O)c1ccc2oc(C(=O)N3CCOCC3)c(C)c2c1 | > 30 µM (inactive)
O=C(COc1cccc2cccnc12)N/N=C/c1ccccc1O | > 30 µM (inactive)
FC(F)(F)c1nnc2n1N=C(c1cccs1)CS2 | > 30 µM (inactive)
CSc1nc(NCC(C)C)nc(N2CCOCC2)n1 | > 30 µM (inactive)
Cc1onc(-c2c(F)cccc2Cl)c1C(=O)OCC(=O)Nc1c(C)n(C)n(-c2ccccc2)c1=O | > 30 µM (inactive)
NC(=O)c1cc([N+](=O)[O-])ccc1NCc1ccc(O)cc1 | 4.32 µM
CC(C)CN(C(=O)CN1CC=C(c2ccccc2)CC1)c1c(N)n(CC(C)C)c(=O)[nH]c1=O | > 30 µM (inactive)
CN1/C(=C\C=C(/C#N)C(=O)Nc2ccc(Cl)cc2)C(C)(C)c2ccccc21 | > 30 µM (inactive)
Cc1nnc(NC(=O)c2cccc(S(=O)(=O)N3CC(c4ccccc4)CC3=O)c2)s1 (centres undefined) | > 30 µM (inactive)
COc1cc(/C=N/NC(=O)c2cccc(C(=O)N/N=C/c3ccc(O)c(OC)c3)n2)ccc1O | > 30 µM (inactive)
Cc1cc(=O)[nH]c2c(C)c(Cl)ccc12 | > 30 µM (inactive)
CC1=C(C(=O)OCc2ccc3c(c2)OCO3)C(c2ccccc2)NC(=O)N1 (centres undefined) | 1.97 µM
CCOc1ccc2ccccc2c1/C=N/n1cncn1 | > 30 µM (inactive)
N#CCCn1cc(/C=N/O)c(-c2ccc(Cl)cc2)n1 | 21 µM
O=c1cc[nH]c2ccc(OC(F)(F)F)cc12 | > 30 µM (inactive)
COc1ccccc1N1CCN(C(=O)c2cc(-c3ccccc3)on2)CC1 | > 30 µM (inactive)
O=C1OCCC/C1=C\c1ccc2c(c1)OCO2 | 23.3 µM
O=C(Nc1cccc(-c2nc3cccnc3s2)c1)c1cccnc1Cl | 8.59 µM
O=C(COc1ccc(-n2cnnn2)cc1)Nc1ccc(F)c(F)c1F | > 30 µM (inactive)
C/C(CC(=O)N(C(C)C)C(C)C)=N\NC(=O)COc1ccc(Br)cc1Br | > 30 µM (inactive)
Cc1ccc(-n2nnnc2CSc2nnc(-c3ccc(O)cc3)o2)cc1 | 5.51 µM

SMILES | AC50
Cc1nc(SCC(=O)NCC2CCCO2)c2c3c(sc2n1)CCC3 (centres undefined) | > 30 µM (inactive)
Cc1ccc(C2C3=C(CCCC3=O)Nc3[nH]c(=S)[nH]c(=O)c32)cc1 (centres undefined) | > 30 µM (inactive)
COc1cc(C2C(C#N)=C(N)Oc3n[nH]c(-c4cccnc4)c32)ccc1OCC(N)=O (centres undefined) | > 30 µM (inactive)
CC(Oc1ccccc1)C(=O)Nc1nnc(C2CCCCC2)s1 (centres undefined) | > 30 µM (inactive)
NC(=O)c1sc2nc3c(c(-c4ccco4)c2c1N)CCCC3 | 13.6 µM
Cc1cc2oc(C(=O)NCCc3ccc(S(N)(=O)=O)cc3)c(C)c2cc1C | > 30 µM (inactive)
Cc1c(C(=O)OC2CCCCC2)[nH]c2c1C(=O)CC(C)(C)C2 | > 30 µM (inactive)
O=C1c2ccccc2-c2onc3ccc(NCc4ccco4)c1c23 | > 30 µM (inactive)
Oc1ccc(-c2nc3ncccn3c2Nc2ccc3c(c2)OCCO3)cc1 | > 30 µM (inactive)
CCOc1ccc(Nc2nc(N)c3ccccc3n2)cc1 | 31.2 µM
O=C(COC(=O)c1cccc(S(=O)(=O)N2CCOCC2)c1)Nc1ncc(Cl)cc1Cl | > 30 µM (inactive)
Fc1ccc(Nc2nc(-c3ccncc3)nc3ccccc23)cc1F | > 30 µM (inactive)
CC(C)COC(=O)N1CCCC1C(=O)Nc1nccs1 (centres undefined) | > 30 µM (inactive)
CN(c1ccccc1)c1nc(-n2ccnc2)nc(-n2ccnc2)n1 | 29.3 µM
Cc1ccc2nc(C3CCCCC3)[nH]c2c1 | > 30 µM (inactive)
CCCC(=O)NC(=S)Nc1cccc(C(C)=O)c1 | > 30 µM (inactive)
CCN1CCN(c2nc(Nc3cccc(OC)c3)nc(N)c2[N+](=O)[O-])CC1 | > 30 µM (inactive)
Cc1cccc(OCC(=O)N2CCN(c3nnc(-c4ccccc4)c4ccccc34)CC2)c1 | > 30 µM (inactive)
CCCCc1cc(=O)oc2cc(O)ccc12 | 25.9 µM
O=C(NCCCCCCNC(=O)OCCO)OCCO | > 30 µM (inactive)
NC(=O)c1oc2ccccc2c1NC(=O)c1ccc(F)cc1 | > 30 µM (inactive)
O=C(COC(=O)c1cc(S(=O)(=O)N2CCOCC2)ccc1F)Nc1ccc(Cl)cn1 | 2.72 µM
COc1ccc(-c2nnc(SCC(=O)Nc3ccccc3OC)o2)cc1 | > 30 µM (inactive)
N/C(=N\OC(=O)c1ccco1)c1ccc(Cl)cc1 | > 30 µM (inactive)
O=C(CSCCc1ccccn1)Nc1ccccn1 | > 30 µM (inactive)
CCN1C(=O)/C(=C/c2cccs2)N(C)C1=S | > 30 µM (inactive)

SMILES | AC50
O=C1N=C(C=c2ccc(=Cc3[nH]c(=O)[nH]c3O)cc2)C(=O)N1 | 15.5 µM
CN(CCO)c1ncnc2c1sc1nc(N3CCOCC3)c3c(c12)CCC3 | > 30 µM (inactive)
O=c1[nH]c(=S)n(CCC2=CCCCC2)c(O)c1C=NCCCn1ccnc1 | 14.3 µM
Fc1ccc(/C=N/Nc2nc3ccccc3[nH]2)cc1F | > 30 µM (inactive)
N#CC1=C2SCN(c3ccccc3)CN2C(=O)CC1c1c(Cl)cccc1Cl (centres undefined) | > 30 µM (inactive)
Cc1ccnc(NC(=O)CCC(=O)N(CC(=O)NCc2ccccc2)Cc2ccc(F)cc2)c1 | 25 µM
CCOc1cccc(-c2c(C(=O)N/N=C/c3ccncc3)nnn2-c2nonc2N)c1 | 2.13 µM
CC(C)C(=O)Nc1cccc2nsnc12 | > 30 µM (inactive)
CC1=C(C(=O)OCc2ccc3c(c2)OCO3)C(c2ccc(F)cc2)NC(=O)N1 (centres undefined) | 20.3 µM
COc1cc2c(cc1OC)-c1c3c(cc4c1[C@@H](C2)N(C)CC4)OCO3 | 24.9 µM
CC(C)(C)NCC(O)COc1ccccc1C(C)(C)C (centres undefined) | > 30 µM (inactive)
Cc1cc(N2CCN(c3ccccc3)CC2)n2c(n1)nc1ccccc12 | 4.33 µM
Oc1cccc(Nc2c3ccccc3nc3ccccc23)c1 | > 30 µM (inactive)
O=S(=O)(NCC1CCCO1)c1ccc(Cl)nc1 (centres undefined) | > 30 µM (inactive)
CCN=C1S/C(=C/c2ccc(-c3ccc(Cl)cc3C(=O)O)o2)C(=O)N1CC | 4.3 µM
CCOc1ccc(NC(=O)N(C2CCCCC2)C(C)c2cccnc2)cc1 (centres undefined) | > 30 µM (inactive)
CC[n+]1c(/C=C/N(C)c2ccccc2)n(-c2ccccc2)c2ccc(-c3nc4ccccc4s3)cc21 | > 30 µM (inactive)
O=C(O)COc1ccccc1/C=N/NC(=O)CSc1nnc(SCc2ccccc2)s1 | > 30 µM (inactive)
c1ccc(-c2noc(-c3ccc4c(c3)OCO4)n2)cc1 | > 30 µM (inactive)
Cc1ccc(S(=O)(=O)N(CC(O)CN2CCCCC2)c2ccccc2)cc1 (centres undefined) | > 30 µM (inactive)
Brc1ccc(-c2nc3ncccn3c2NC2CCCCC2)o1 | 2.61 µM
NC1=NC(=O)/C(=C/c2ccc(-c3ccc(S(N)(=O)=O)cc3)o2)S1 | 0.397 µM
COc1cc(CN2CCN(Cc3ccc([N+](=O)[O-])cc3)CC2)c([N+](=O)[O-])cc1OC | > 30 µM (inactive)
CCN(C(=O)CN1CC=C(c2ccccc2)CC1)c1c(N)n(Cc2ccccc2)c(=O)[nH]c1=O | > 30 µM (inactive)
CCN1CCN(c2c(Cl)cccc2NC(=O)c2ccc(Br)o2)CC1 | 2.59 µM
CCOC(=O)CN1CC23C=CC(O2)C(C(=O)O)C3C1=O (centres undefined) | > 30 µM (inactive)

SMILES | AC50
CCOCC(=O)Nc1nc2ccc(OCC)cc2s1 | > 30 µM (inactive)
CCOC(=O)c1nnn(-c2nonc2N)c1-c1ccc(Br)cc1 | 12.4 µM
Cc1ccc(C(=O)c2c(NC(=O)CSc3nnc(N)s3)sc3c2CCCC3)cc1 | > 30 µM (inactive)
Nc1c(C(=O)O)ccc2c1C(=O)c1ccccc1C2=O | 7.87 µM
N#Cc1c(C#N)c(-c2ccccc2)n(-c2ccc(C(=O)O)cc2)c1N | 14.2 µM
CC(=O)Oc1cc(O)c2c(=O)c(OC(C)=O)c(-c3ccc(OC(C)=O)c(OC(C)=O)c3)oc2c1 | 15.4 µM
COC(=O)Nc1nnc(COc2ccccc2)s1 | > 30 µM (inactive)
O=S(=O)(c1ccc(Cl)nc1)N1CCN(Cc2ccc3c(c2)OCO3)CC1 | > 30 µM (inactive)
N#Cc1c(-c2ccncc2)c2c([nH]c1=O)-c1ccccc1OC2 | > 30 µM (inactive)
COc1cc(Br)c(C2C(C#N)=C(N)Oc3n[nH]c(-c4cccnc4)c32)cc1OC (centres undefined) | > 30 µM (inactive)
COc1ccc(CC(=O)NCCc2cnc[nH]2)cc1 | > 30 µM (inactive)
COc1ccc(CCNC(=O)c2nnn(-c3ccccc3OC)c2N)cc1OC | 14.8 µM
CCCc1cc(C(N)=O)c(NC(=O)C2CCCO2)s1 (centres undefined) | > 30 µM (inactive)
O=C(NCCCN1CCCC1)c1cc2c(Cl)nc3ccccc3c2s1 | > 30 µM (inactive)
Cc1nc(NCC2CCCO2)[nH]c(=O)c1CCC(C)C (centres undefined) | > 30 µM (inactive)
CCC(CC)c1nnc(NC(=O)Oc2ccccc2)s1 | > 30 µM (inactive)
CCOc1ccc(-c2ncncc2-c2ccc(OC)cc2)c(O)c1 | > 30 µM (inactive)
COc1cccc(/C=C2\Oc3cc(OCC(=O)N4CCC[C@H]4C(=O)O)ccc3C2=O)c1 | > 30 µM (inactive)
CCOc1ccc2ncc(S(=O)(=O)c3ccccc3)c(N3CCN(c4ccc(OC)cc4)CC3)c2c1 | > 30 µM (inactive)
NC(=O)c1cc([N+](=O)[O-])ccc1NCc1cccc([N+](=O)[O-])c1 | 3.49 µM
CCN=C(NC#N)SCc1c(F)cccc1Cl | > 30 µM (inactive)
CCCNC(=O)Cn1c(-c2ccc(F)cc2)cc(C(=O)OCC)c1C | > 30 µM (inactive)
CC(=O)C1C(c2ccccc2)c2c(n[nH]c2C)CC1(C)O (centres undefined) | > 30 µM (inactive)
O=C(CCCN1C(=O)C2CCCCN2C1=O)N1CCN(c2ccc([N+](=O)[O-])cc2)CC1 (centres undefined) | > 30 µM (inactive)
COc1ccc(N=c2oc3c(OC)cccc3cc2C(=O)NCc2ccco2)cc1OC | > 30 µM (inactive)
c1ccc(-c2nc3ccccc3[nH]2)cc1 | > 30 µM (inactive)
